Assay results published in PMC7721589, “Synthesis and structure-activity relationships for tetrahydroisoquinoline-based inhibitors of Mycobacterium tuberculosis” (Bioorganic & Medicinal Chemistry, 2020).
Values after ≈ are worked out from the molar mass of the structure shown. Where two headings read alike, the source gives them in different places.

How the values were obtained:
[1] = test system: Vero green monkey-derived epithelial kidney cells; assay: Mammalian cytotoxicity in Vero cells; format: cell-based; settings: for IC50: Chlorocebus sabaeus
[2] = Microsomal clearance in human liver microsomes; further: unit not given here
M.tb strain H37Rv [3] = assay: MIC against M.tb H37Rv under non-replicating (LORA) conditions; settings: for MIC LORA: MIC90, Table 1; for MIC (µg/mL) LORA: MIC90, Table 2
[4] = Microsomal clearance in mouse liver microsomes; further: unit not given here
M.tb strain H37Rv [5] = assay: MIC against M.tb H37Rv under aerobic (replicating; MABA) conditions; format: cell-based, Mycobacterium tuberculosis; settings: for MIC MABA: MIC90, Table 1; for MIC: Mycobacterium tuberculosis
[6] = human, microsomes
[7] = target: M. smegmatis ATP synthase (Mycolicibacterium smegmatis, UniProt A0R205+A0R206); assay: Inhibition of mycobacterial ATP synthase; format: biochemical; settings: for selectivity over the human enzyme: M. smegmatis vs human mitochondrial ATP synthase; for IC50: read-out: M. smeg ATPsynth IC50, M. smegmatis ATP synthase
[8] = mouse, microsomes
[9] = Stability in CDCl3 solution; format: physicochemical; settings: over 1–2 days
Source text: Note: The X = OMe compounds 8 and 9 were unstable in CDCl3 solution over 1–2 days.

[10] = MIC90, Table 1, read-out: MIC MABA

Compound | MIC LORA (M.tb strain H37Rv [3]) | IC50 ([1]; Table 1) | IC50 [7] | MIC (M.tb strain H37Rv [5]; [10]) | melting point | also measured
2-((5-(4-Chlorophenyl)pyridin-2-yl)methyl)-8-(4-methylpiperazin-1-yl)-5-methyl-1,2,3,4-tetrahydroisoquinoline [Compound 12] | 5.2 µg/mL | – | – | – | – | IC50 VERO ([1]; Table 1): 14 µg/mL; HLM Clint [2]: 92; MIC (µg/mL) LORA (M.tb strain H37Rv [3]): 5.2 µg/mL; MLM Clint [4]: 239; MIC MABA (M.tb strain H37Rv [5]): 0.79 µg/mL; MIC (µg/mL) MABA (M.tb strain H37Rv [5]; MIC90, Table 2): 0.79 µg/mL
CN1CCN(c2cccc3c2CN(Cc2ccc(-c4ccc(Cl)cc4)cn2)CC3)CC1 [Compound 10, 2-((5-(4-Chlorophenyl)pyridin-2-yl)methyl)-8-(4-methylpiperazin-1-yl)-1,2,3,4-tetrahydroisoquinoline] | 16 µg/mL (≈ 37 µM) | 16 µg/mL (≈ 37 µM) | 16.6 µM | 1.8 µg/mL (≈ 4.16 µM) | – | HLM Clint [6]: 121; selectivity over the human enzyme [7]: > 70 fold; MLM Clint [8]: 238
CN1CCN(c2cccc3c2CN(C(=O)Nc2ccc(-c4ccc(OC(F)(F)F)cc4)cn2)CC3)CC1 [Compound 23, 8-(4-Methylpiperazin-1-yl)-N-(5-(4-(trifluoromethoxy)phenyl)pyridin-2-yl)-3,4-dihydroisoquinoline-2(1H)-carboxamide] | 3.9 µg/mL (≈ 7.62 µM) | 14 µg/mL (≈ 27.4 µM) | 12.1 µM | 3.6 µg/mL (≈ 7.04 µM) | – | selectivity over the human enzyme [7]: > 80 fold
Cc1ccc(N2CCN(C)CC2)c2c1CCN(C(=O)Nc1ccc(-c3cc(C(F)(F)F)cc(C(F)(F)F)c3)cn1)C2 [Compound 26, N-(5-(3,5-Bis(trifluoromethyl)phenyl)pyridin-2-yl)-5-methyl-8-(4-methylpiperazin-1-yl)-3,4-dihydroisoquinoline-2(1H)-carboxamide] | 5.3 µg/mL (≈ 9.18 µM) | > 32 µg/mL | 24.2 µM | 3.1 µg/mL (≈ 5.37 µM) | 114 to 117 °C | –
CCc1ccc(N2CCN(C)CC2)c2c1CCN(C(=O)Nc1ccc(-c3ccc(C(F)(F)F)cc3)cn1)C2 [Compound 27, 5-Ethyl-8-(4-methylpiperazin-1-yl)-N-(5-(4-(trifluoromethyl)phenyl)pyridin-2-yl)-3,4-dihydroisoquinoline-2(1H)-carboxamide] | 0.9 µg/mL (≈ 1.72 µM) | 12 µg/mL (≈ 22.9 µM) | 4.2 µM | 1 µg/mL (≈ 1.91 µM) | – | HLM Clint [6]: 107; MLM Clint [8]: 810
COc1ccc(-c2ccc(NC(=O)N3CCc4c(OC)ccc(N5CCN(C)CC5)c4C3)nc2)cn1 [Compound 32, 5-Methoxy-N-(6′-methoxy-[3,3′-bipyridin]-6-yl)-8-(4-methylpiperazin-1-yl)-3,4-dihydroisoquinoline-2(1H)-carboxamide] | 20 µg/mL (≈ 40.9 µM) | 14 µg/mL (≈ 28.7 µM) | – | 15.5 µg/mL (≈ 31.7 µM) | 93 to 96 °C | –
COc1ccc(-c2ccc(NC(=O)N3CCc4c(OC)ccc(N5CCN(C)CC5)c4C3)nc2)cc1 [Compound 33, 5-Methoxy-N-(5-(4-methoxyphenyl)pyridin-2-yl)-8-(4-methylpiperazin-1-yl)-3,4-dihydroisoquinoline-2(1H)-carboxamide] | 7.4 µg/mL (≈ 15.2 µM) | 16 µg/mL (≈ 32.8 µM) | – | 7.1 µg/mL (≈ 14.6 µM) | 207 to 209 °C | –
COc1ccc(N2CCN(C)CC2)c2c1CCN(C(=O)Nc1ccc(-c3ccc(C(F)(F)F)cc3Cl)cn1)C2 [Compound 34, N-(5-(2-Chloro-4-(trifluoromethyl)phenyl)pyridin-2-yl)-5-methoxy-8-(4-methylpiperazin-1-yl)-3,4-dihydroisoquinoline-2(1H)-carboxamide] | 3.2 µg/mL (≈ 5.71 µM) | 12 µg/mL (≈ 21.4 µM) | – | 3.6 µg/mL (≈ 6.43 µM) | 61 to 64 °C | –
COc1ccc(N2CCN(C)CC2)c2c1CCN(C(=O)Nc1ccc(-c3ccc(Cl)cc3C)cn1)C2 [Compound 35, N-(5-(4-chloro-2-methylphenyl)pyridin-2-yl)-5-methoxy-8-(4-methylpiperazin-1-yl)-3,4-dihydroisoquinoline-2(1H)-carboxamide] | 3.1 µg/mL (≈ 6.13 µM) | 12 µg/mL (≈ 23.7 µM) | 12.4 µM | 1.9 µg/mL (≈ 3.75 µM) | 99 to 101 °C | –
COc1ccc(N2CCN(C)CC2)c2c1CCN(C(=O)Nc1ccc(-c3ccc(Cl)cc3Cl)cn1)C2 [Compound 36, N-(5-(2,4-Dichlorophenyl)pyridin-2-yl)-5-methoxy-8-(4-methylpiperazin-1-yl)-3,4-dihydroisoquinoline-2(1H)-carboxamide] | – | > 32 µg/mL | 5.7 µM | 1.9 µg/mL (≈ 3.61 µM) | 108 to 111 °C | HLM Clint [6]: 48; MLM Clint [8]: 584
COc1ccc(N2CCN(C)CC2)c2c1CCN(C(=O)Nc1ccc(-c3ccc(OC(F)(F)F)cc3)cn1)C2 [Compound 37, 5-Methoxy-8-(4-methylpiperazin-1-yl)-N-(5-(4-(trifluoromethoxy)phenyl)pyridin-2-yl)-3,4-dihydroisoquinoline-2(1H)-carboxamide] | 3.0 µg/mL (≈ 5.54 µM) | 12 µg/mL (≈ 22.2 µM) | – | 3.1 µg/mL (≈ 5.72 µM) | 196 to 198 °C | –
CSc1ccc(N2CCN(C)CC2)c2c1CCN(C(=O)Nc1ccc(-c3ccc(Cl)cc3C)cn1)C2 [Compound 40, N-(5-(4-Chloro-2-methylphenyl)pyridin-2-yl)-8-(4-methylpiperazin-1-yl)-5-(methylthio)-3,4-dihydroisoquinoline-2(1H)-carboxamide] | 2.0 µg/mL (≈ 3.83 µM) | 13 µg/mL (≈ 24.9 µM) | – | 1.9 µg/mL (≈ 3.64 µM) | 111 to 114 °C | –
Cc1cc(Cl)ccc1-c1ccc(NC(=O)N2CCc3c(F)ccc(N4CCN(C)CC4)c3C2)nc1 [Compound 42, N-(5-(4-Chloro-2-methylphenyl)pyridin-2-yl)-5-fluoro-8-(4-methylpiperazin-1-yl)-3,4-dihydroisoquinoline-2(1H)-carboxamide] | 5.4 µg/mL (≈ 10.9 µM) | 12 µg/mL (≈ 24.3 µM) | 3.64 µM | 1.2 µg/mL (≈ 2.43 µM) | 98 to 101 °C | HLM Clint [6]: 50; selectivity over the human enzyme [7]: 9.4 fold; MLM Clint [8]: 65
CN1CCN(c2cccc3c2CN(C(=O)Cc2ccc(-c4ccc(Cl)cc4)cn2)CC3)CC1 [Compound 43, 2-(5-(4-Chlorophenyl)pyridin-2-yl)-1-(8-(4-methylpiperazin-1-yl)-3,4-dihydroisoquinolin-2(1H)-yl)ethan-1-one] | 20.3 µg/mL (≈ 44 µM) | 19 µg/mL (≈ 41.2 µM) | – | 14.1 µg/mL (≈ 30.6 µM) | 49 to 52 °C | –
Cc1cc(Cl)ccc1-c1ccc(CC(=O)N2CCc3cccc(N4CCN(C)CC4)c3C2)nc1 [Compound 47] | 19.4 µg/mL (≈ 40.8 µM) | 11 µg/mL (≈ 23.2 µM) | – | 14 µg/mL (≈ 29.5 µM) | 45 to 48 °C | –
Cc1ccc(N2CCN(C)CC2)c2c1CCN(C(=O)N1CCC(Oc3ccc(OC(F)(F)F)cc3)CC1)C2 [Compound 48, (5-Methyl-8-(4-methylpiperazin-1-yl)-3,4-dihydroisoquinolin-2(1H)-yl)(4-(4-(trifluoromethoxy)phenoxy)piperidin-1-yl)methanone] | 3.9 µg/mL (≈ 7.32 µM) | 19 µg/mL (≈ 35.7 µM) | – | 6.4 µg/mL (≈ 12 µM) | – | HLM Clint [6]: 48; MLM Clint [8]: 40
Cc1ccc(N2CCN(C)CC2)c2c1CCN(C(=O)N1CCC(Oc3ccccc3C(F)(F)F)CC1)C2 [Compound 49, (5-Methyl-8-(4-methylpiperazin-1-yl)-3,4-dihydroisoquinolin-2(1H)-yl)(4-(2-(trifluoromethyl)phenoxy)piperidin-1-yl)methanone] | 7.3 µg/mL (≈ 14.1 µM) | 11 µg/mL (≈ 21.3 µM) | 12 µM | 7.7 µg/mL (≈ 14.9 µM) | – | –
COc1ccc(N2CCN(C)CC2)c2c1CCN(C(=O)N1CCC(Oc3ccc(OC(F)(F)F)cc3)CC1)C2 [Compound 50, (5-Methoxy-8-(4-methylpiperazin-1-yl)-3,4-dihydroisoquinolin-2(1H)-yl)(4-(4-(trifluoromethoxy)phenoxy)piperidin-1-yl)methanone] | 7.0 µg/mL (≈ 12.8 µM) | 15 µg/mL (≈ 27.3 µM) | – | 7.6 µg/mL (≈ 13.9 µM) | 49 to 51 °C | –
COc1ccc(N2CCN(C)CC2)c2c1CCN(C(=O)N1CCC(Oc3ccccc3C(F)(F)F)CC1)C2 [Compound 51, (5-Methoxy-8-(4-methylpiperazin-1-yl)-3,4-dihydroisoquinolin-2(1H)-yl)(4-(2-(trifluoromethyl)phenoxy)piperidin-1-yl)methanone] | 10.0 µg/mL (≈ 18.8 µM) | 24 µg/mL (≈ 45.1 µM) | – | 12 µg/mL (≈ 22.5 µM) | 74 to 77 °C | –
Cc1cc(Cl)ccc1-c1ccc(CN2CCc3c(C)ccc(N4CCSCC4)c3C2)nc1 [Compound 54, 4-(2-((5-(4-Chloro-2-methylphenyl)pyridin-2-yl)methyl)-5-methyl-1,2,3,4-tetrahydroisoquinolin-8-yl)yhiomorpholine] | – | – | – | – | 133 to 135 °C | IC50 ([1]; Table 2): > 32 µg/mL; MIC (µg/mL) LORA (M.tb strain H37Rv [3]): 5.9 µg/mL (≈ 12.7 µM); MIC (M.tb strain H37Rv [5]; MIC90, Table 2, read-out: MIC (µg/mL) MABA): 3.4 µg/mL (≈ 7.33 µM)
N-(5-(3,5-bis(trifluoromethyl)phenyl)pyridin-2-yl)-5-methoxy-8-(4-methylpiperazin-1-yl)-3,4-dihydroisoquinoline-2(1H)-carboxamide [Compound 9] | 12 µg/mL | – | – | – | – | stability in CDCl3 solution [9]: unstable; IC50 VERO ([1]; Table 1): 19 µg/mL; MIC MABA (M.tb strain H37Rv [5]): 7.9 µg/mL
N-(5-(4-(tert-butyl)phenyl)pyridin-2-yl)-5-methyl-8-(4-methylpiperazin-1-yl)-3,4-dihydroisoquinoline-2(1H)-carboxamide [Compound 7] | 3.4 µg/mL | – | – | – | – | IC50 VERO ([1]; Table 1): 18 µg/mL; HLM Clint [2]: 41; MLM Clint [4]: 56; MIC MABA (M.tb strain H37Rv [5]): 1.4 µg/mL
